Patent US10925858B2, “S-nitrosoglutathione (GSNO) and GSNO reductase inhibitors for use in therapy” (MUSC FOUNDATION FOR RESEARCH DEVELOPMENT, priority 2017, dated 2021)

Experiments:
[1] = system: IFN-γ, IL-4, IL-17, IL-10; assay: ELISA of CD4+ T cell subset specific cytokines in culture media of CNS derived lymphocytes of EAE mice; format: in vivo, C57BL/6 mice; details: N6022 1 mg/kg/day
Method: Female C57BL/6 mice of 8-12 weeks of age, purchased from Jackson Laboratory, were provided with food and water ad libitum and were kept in pathogen free animal care facility of Medical University of South Carolina (MUSC) throughout the study. All procedures were conducted in accordance with accepted standards of humane care as approved by the Institutional Animal Care and Use Committee (Approved number: AR #1644). EAE was induced as described previously (Nath et al., 2009). Briefly, mice were immunized subcutaneously in the flank regions with MOG35-55 peptide (MOG; 200 μg; Peptide International) emulsified (1:1) in 100 ul complete Freund's adjuvant (CFA) on day 0 and day 7. Additionally, 300 ng of Pertussis toxin (Sigma-Aldrich, St. Louis, Mo.) was given on day 0 and day 2 by i.p. injection. Pertussis toxin used as per the standardized protocol reported by us and other investigators for the induction of EAE (Nath et al., 2009). Similarly, healthy control group received subcutaneous injection of PBS and CFA emulsion on day 0 and day 7. Clinical signs of EAE were scored by examiners blinded to experimental treatments using the following scale: 0=no clinical signs of disease; 1=piloerection and sluggish; 2=limp tail (ataxia); 2.5=ataxia with partial hind limb paralysis; 3=full paralysis of hind limb; 3.5=full paralysis of hind limb with paralysis of one fore limb; 4=full paralysis of two limbs; 4.5=moribund stage; 5=death. […] The drug treatments were continued till the termination of the study (day 41 post immunization). EAE animals without drug treatment received PBS. Likewise, healthy controls received vehicle.
Fluorescence flow cytometry analysis for each subset of CD4+ T cells (TH1, TH2, TH17, CD4+CD25+ FOXP3+ Treg, and CD4+CD25+ FOXP3− Treg) were performed based on our previous report with modification (Nath et al., 2004). Briefly, control mice, EAE mice. EAE mice treated with GSNO. […] Following the preparation of single cell suspension, red blood cells were lysed with Pharma lyse buffer (BD Pharmingen™) and the remaining spleen cells were washed with RPMI 1640. The isolated CD4+ T cells were then resuspended with complete RPMI-media in 12-well plates (5×10^6 cells' 2 ml per well) containing MOG peptide (25 μg/ml) for 48 hrs. […] The cell pellets were washed with cell staining solution (ebioscience, Waltham, Mass. USA) and stained with fluorescence labeled antibody specific to IFN-γ for TH1. […] The cells were counted and analyzed using Beackman Coulter instrument (Beckman Coulter, Inc., Brea, Calif., USA).
ELISA assay was performed for analysis of CD4+ T cell subset specific cytokines released from cultured cells or spinal cord tissues. […] The equal amounts of proteins were analyzed for ELISA for IFN-γ. […]

[2] = system: cerebral microvessels; assay: Transmission electron microscopy, ultrastructure of microvessels of diabetic mice; format: in vivo; details: cortex and hippocampus, GSNO supplemented diabetic animals, 8 weeks
Method: Male laca mice weighing between 28-32 g were procured from the Central Animal House, Panjab University, Chandigarh. The animals were acclimatized and were fed with standard pellet diet and water ad libitum. The experimental protocols were approved by the Institutional Ethics Committee and were conducted according to Indian National Science Academy (INSA) guidelines for the use and care of experimental animals. The animals were divided into four groups: (i) Control animals received phosphate buffered saline (PBS) throughout the study; (ii) Control+GSNO animals were administered with GSNO 100 μg/kg body weight orally, dissolved in PBS after every 24 h for 8 weeks; (iii) Diabetic animals were injected with STZ at a dose of 40 mg/kg body weight intraperitoneally for 5 days dissolved in 0.1 mol/L citrate buffer, pH 4.5 and Diabetic+GSNO mice were administered GSNO 100 μg/kg body weight orally dissolved in PBS after every 24 h for 8 weeks after the induction of diabetes. Animals were assessed weekly for development of diabetic encephalopathy in terms of memory deficits. All experimental procedures were done on mice at the end of study. Transmission electron microscopy was carried out by the method described by Gao et al., (2005). […]

Row | SMILES | IFN-γ in culture media of CNS derived lymphocytes [1] | IL-4 release of CNS derived lymphocytes [1] | IL-17 in culture media of CNS derived lymphocytes [1] | IL-10 expression of CNS derived lymphocytes ([1]; vs control levels) | ultrastructure of microvessels [2]
1 | Cc1cc(C(N)=O)ccc1-n1c(CCC(=O)O)ccc1-c1ccc(-n2ccnc2)cc1 [N6022, reference compound] | decreased | increased | decreased | increased | –
2 | N[C@@H](CCC(=O)N[C@@H](CSN=O)C(=O)NCC(=O)O)C(=O)O [GSNO, S-nitrosoglutathione] | – | – | – | – | improved the ultrastructure of the damaged microvessels
